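Growth conditions: 96-well plates. Treatment: test compound, 48 hours, 5 concentrations. Analysis: linear interpolation between bracketing concentrations; unreached endpoints set to highest concentration. GI50 = concentration required for 50% inhibition of growth.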 Active and inactive are the calls of the source. Rule as the data show it: active = GI50 up to about 1.1 µM and inactive = higher.
What was measured:
Experiment in all cases: NCI anticancer screen, dose series, 48 h
[1] = tested on: 786-0
[2] = tested on: A498
[3] = tested on: A549
[4] = tested on: ACHN
[5] = tested on: CAKI-1
[6] = tested on: CCRF-CEM
[7] = tested on: COLO 205
[8] = tested on: DU-145
[9] = tested on: EKVX
[10] = tested on: HCC 2998
[11] = tested on: HCT-116
[12] = tested on: HCT-15
[13] = tested on: HL-60
[14] = tested on: HOP-92
[15] = tested on: HT-29
[16] = tested on: Hs-578T
[17] = tested on: IGROV-1
[18] = tested on: K562
[19] = tested on: KM12
[20] = tested on: LOX IMVI
[21] = tested on: M14
[22] = tested on: MCF7
[23] = tested on: MDA-MB-231
[24] = tested on: MDA-MB-435
[25] = tested on: MOLT-4
[26] = tested on: NCI-H226
[27] = tested on: NCI-H23
[28] = tested on: NCI-H522
[29] = tested on: NCI/ADR-RES
[30] = tested on: OVCAR-4
[31] = tested on: OVCAR-5
[32] = tested on: OVCAR-8
[33] = tested on: RPMI-8226
[34] = tested on: RXF 393
[35] = tested on: SF-268
[36] = tested on: SF-295
[37] = tested on: SF-539
[38] = tested on: SK-MEL-28
[39] = tested on: SK-MEL-5
[40] = tested on: SK-OV-3
[41] = tested on: SNB-19
[42] = tested on: SNB-75
[43] = tested on: SR
[44] = tested on: SW-620
[45] = tested on: T47D
[46] = tested on: TK-10
[47] = tested on: U-251
[48] = tested on: UACC-257
[49] = tested on: UACC-62
[50] = tested on: UO-31
[51] = tested on: MDA-N
[52] = tested on: OVCAR-3
[53] = tested on: PC-3
[54] = tested on: SN12C
[55] = tested on: Malme-3M
[56] = tested on: HOP-62
[57] = tested on: NCI-H460
[58] = tested on: SK-MEL-2

With `Cc1nnc2c3c(-c4ccccc4)c(-c4ccccc4)oc3nc(N(C)C)n12` the GI50 [1] was 90.4 µM (inactive), the GI50 [2] was 65.2 µM (inactive) and the GI50 [3] was 37.2 µM (inactive). For the same molecule, the GI50 [4] was 64.6 µM (inactive), the GI50 [5] was > 100 µM (inactive) and the GI50 [6] was 29.6 µM (inactive). The GI50 [7] was 64.4 µM (inactive), the GI50 [8] was > 100 µM (inactive) and the GI50 [9] was > 100 µM (inactive). The GI50 [10] was 29.4 µM (inactive), the GI50 [11] was 24.8 µM (inactive) and the GI50 [12] was 23.7 µM. The GI50 [13] was 22.4 µM (inactive), the GI50 [14] was > 100 µM (inactive) and the GI50 [15] was 33.2 µM (inactive). The GI50 [16] was 21.3 µM (inactive), the GI50 [17] was 85.1 µM (inactive) and the GI50 [18] was 36.1 µM (inactive). The GI50 [19] was 26.7 µM (inactive), the GI50 [20] was 39.4 µM (inactive) and the GI50 [21] was 61.2 µM (inactive). The GI50 [22] was 33.3 µM (inactive), the GI50 [23] was > 100 µM (inactive) and the GI50 [24] was 36.5 µM (inactive). The GI50 [25] was 22.9 µM (inactive), the GI50 [26] was 96.6 µM (inactive) and the GI50 [27] was 54.5 µM (inactive). For the same molecule, the GI50 [28] was 97.9 µM (inactive), the GI50 [29] was > 100 µM (inactive) and the GI50 [30] was > 100 µM (inactive). For the same molecule, the GI50 [31] was 51.5 µM (inactive), the GI50 [32] was 78.9 µM (inactive) and the GI50 [33] was 20.1 µM (inactive). The GI50 [34] was 73.5 µM (inactive), the GI50 [35] was 39.5 µM (inactive) and the GI50 [36] was 37.6 µM (inactive). For the same molecule, the GI50 [37] was 86.5 µM (inactive), the GI50 [38] was 72.1 µM (inactive) and the GI50 [39] was 35.2 µM (inactive). The GI50 [40] was > 100 µM (inactive), the GI50 [41] was > 100 µM (inactive) and the GI50 [42] was 15.5 µM (inactive). For the same molecule, the GI50 [43] was 16.7 µM (inactive), the GI50 [44] was 44.6 µM (inactive) and the GI50 [45] was 83.6 µM (inactive). For the same molecule, the GI50 [46] was > 100 µM (inactive), the GI50 [47] was 51.2 µM (inactive) and the GI50 [48] was 36.1 µM (inactive). For the same molecule, the GI50 [49] was 39.2 µM (inactive) and the GI50 [50] was 21.4 µM (inactive).

With `COc1cc2c(cc1OC)C1C[C@]3(CCN1CC2)C(=O)N(c1ccccc1)C(=O)N3C(C)=O` (some centres not stated) the GI50 [2] was > 200 µM (inactive), the GI50 [3] was > 200 µM (inactive) and the GI50 [4] was > 200 µM (inactive). For the same molecule, the GI50 [5] was > 200 µM (inactive), the GI50 [7] was > 200 µM (inactive) and the GI50 [8] was > 200 µM (inactive). The GI50 [9] was > 200 µM (inactive), the GI50 [11] was > 200 µM (inactive) and the GI50 [12] was > 200 µM. The GI50 [14] was > 200 µM (inactive), the GI50 [15] was > 200 µM (inactive) and the GI50 [17] was > 200 µM (inactive). For the same molecule, the GI50 [19] was > 200 µM (inactive), the GI50 [21] was > 200 µM (inactive) and the GI50 [23] was > 200 µM (inactive). The GI50 [24] was > 200 µM (inactive), the GI50 [51] was > 200 µM (inactive) and the GI50 [26] was > 200 µM (inactive). For the same molecule, the GI50 [27] was > 200 µM (inactive), the GI50 [29] was > 200 µM (inactive) and the GI50 [52] was > 200 µM (inactive). For the same molecule, the GI50 [30] was > 200 µM (inactive), the GI50 [31] was > 200 µM (inactive) and the GI50 [32] was > 200 µM (inactive). The GI50 [53] was > 200 µM (inactive), the GI50 [34] was > 200 µM (inactive) and the GI50 [35] was > 200 µM (inactive). The GI50 [36] was > 200 µM (inactive), the GI50 [37] was > 200 µM (inactive) and the GI50 [38] was > 200 µM (inactive). For the same molecule, the GI50 [39] was > 200 µM (inactive), the GI50 [54] was > 200 µM (inactive) and the GI50 [41] was > 200 µM (inactive). The GI50 [42] was > 200 µM (inactive), the GI50 [44] was > 200 µM (inactive) and the GI50 [46] was > 200 µM (inactive). The GI50 [47] was > 200 µM (inactive) and the GI50 [50] was > 200 µM (inactive).

With `O=c1c2ccccc2nc2n1CCc1c-2[nH]c2ccccc12` [RUTAECARPINE] the GI50 [5] was 9.2 µM (inactive), the GI50 [7] was 21.8 µM (inactive) and the GI50 [8] was 17.4 µM (inactive). The GI50 [9] was 20.7 µM (inactive), the GI50 [11] was 17.5 µM (inactive) and the GI50 [12] was > 10 µM. The GI50 [13] was 24.2 µM (inactive), the GI50 [14] was 15.6 µM (inactive) and the GI50 [17] was 19.8 µM (inactive). The GI50 [18] was 25.2 µM (inactive), the GI50 [19] was > 10 µM (inactive) and the GI50 [21] was 17.1 µM (inactive). For the same molecule, the GI50 [51] was 15.2 µM (inactive), the GI50 [25] was 19.9 µM (inactive) and the GI50 [55] was 28.8 µM (inactive). The GI50 [27] was 17.8 µM (inactive), the GI50 [29] was 19.5 µM (inactive) and the GI50 [31] was 17.4 µM (inactive). For the same molecule, the GI50 [32] was 26.2 µM (inactive), the GI50 [53] was 22.2 µM (inactive) and the GI50 [33] was 15 µM (inactive). For the same molecule, the GI50 [34] was 18.8 µM (inactive), the GI50 [35] was 26.8 µM (inactive) and the GI50 [36] was 14.1 µM (inactive). For the same molecule, the GI50 [38] was 25.2 µM (inactive), the GI50 [39] was 14.7 µM (inactive) and the GI50 [40] was 19.4 µM (inactive). For the same molecule, the GI50 [41] was 15.8 µM (inactive), the GI50 [42] was 18.9 µM (inactive) and the GI50 [43] was 24.4 µM (inactive). The GI50 [44] was 18.6 µM (inactive), the GI50 [45] was 15.7 µM (inactive) and the GI50 [46] was 29.6 µM (inactive). The GI50 [47] was 15.3 µM (inactive) and the GI50 [50] was 14.9 µM (inactive).

For `S=C(/C=C1\SC(=N\c2ccccc2)/C(=N/c2ccccc2)N1c1ccccc1)Nc1ccccc1`, the GI50 [2] was > 100 µM (inactive), the GI50 [5] was > 100 µM (inactive) and the GI50 [6] was 3.66 µM (inactive). For the same molecule, the GI50 [7] was > 100 µM (inactive), the GI50 [8] was > 100 µM (inactive) and the GI50 [11] was > 100 µM (inactive). For the same molecule, the GI50 [12] was > 100 µM, the GI50 [13] was > 100 µM (inactive) and the GI50 [56] was > 100 µM (inactive). For the same molecule, the GI50 [14] was > 100 µM (inactive), the GI50 [15] was > 100 µM (inactive) and the GI50 [16] was > 100 µM (inactive). The GI50 [17] was > 100 µM (inactive), the GI50 [19] was > 100 µM (inactive) and the GI50 [21] was > 100 µM (inactive). For the same molecule, the GI50 [23] was > 100 µM (inactive), the GI50 [24] was > 100 µM (inactive) and the GI50 [51] was > 100 µM (inactive). For the same molecule, the GI50 [25] was 15.2 µM (inactive), the GI50 [55] was > 100 µM (inactive) and the GI50 [27] was > 100 µM (inactive). The GI50 [57] was > 100 µM (inactive), the GI50 [28] was > 100 µM (inactive) and the GI50 [29] was > 100 µM (inactive). The GI50 [52] was > 100 µM (inactive), the GI50 [32] was > 100 µM (inactive) and the GI50 [53] was > 100 µM (inactive). The GI50 [33] was > 100 µM (inactive), the GI50 [36] was > 100 µM (inactive) and the GI50 [38] was > 100 µM (inactive). For the same molecule, the GI50 [58] was > 100 µM (inactive), the GI50 [39] was > 100 µM (inactive) and the GI50 [40] was 67.3 µM (inactive). For the same molecule, the GI50 [54] was > 100 µM (inactive), the GI50 [42] was > 100 µM (inactive) and the GI50 [43] was > 100 µM (inactive). For the same molecule, the GI50 [45] was > 100 µM (inactive), the GI50 [47] was > 100 µM (inactive) and the GI50 [49] was 51.6 µM (inactive).

— ChEMBL document CHEMBL1201862, “PubChem BioAssay data set” (2004)
